According to US12565475B2, “Small molecule compound inhibiting signal transmission path of TLR7 and TLR9 and use thereof” (AJOU UNIVERSITY INDUSTRY-ACADEMIC COOPERATION FOUNDATION, priority 2019, dated 2026):

What was measured:
[1] = system: phosphorylation of MAPK (JNK, p38-MAPK, ERK) and p65 subunit of NF-κB; assay: Western blot of NF-κB p65 and MAPK phosphorylation after ODN2395 stimulation; assay type: cell-based, murine; conditions: RAW 264.7, 20 μM, ODN2395 stimulation 15 min and 30 min
Experimental: RAW 264.7 cells were seeded into a 60 mm cell culture dish at a density of 2×10^6 cells/dish, and treated with test compounds followed by TLR agonists. The cell lysate was harvested through mammalian protein extraction kit (M-PER; Thermo Fisher Scientific, Inc.) with the protease and phosphatase inhibitor cocktail (Thermo Fisher Scientific, Inc.), and the protein levels were quantified using a bicinchoninic acid assay (Sigma-Aldrich, Co.). Protein samples were separated by SDS-PAGE and transferred to nitrocellulose membranes (GE Healthcare, Inc., Chicago, IL, USA). The membranes were incubated with primary antibodies specific to phospho-JNK (Cell Signaling Technology, Inc., Danvers, MA, USA), phospho-ERK (Santa Cruz Biotechnology, Inc., Dallas, TX, USA), phospho-p38-MAPK (Cell Signaling Technology, Inc.), phospho-p65 (Cell Signaling Technology, Inc.), or β-actin (Santa Cruz Biotechnology, Inc.). […] Protein levels were confirmed using a chemiluminescent substrate (SuperSignal™ West Pico PLUS, Thermo Fisher Scientific, Inc.) and a luminescence detection system (Fusion Solo S, VILBER, France).
In general, MYD88 recruitment by TLRs triggers the activation of the transcription factor NF-κB as well as the cell proliferation factor MAPK. […]

TLR1/2 = molecular target: T1, TLR1/2 (Mus musculus, UniProt Q9EPQ1+Q9QUN7); assay: TLR1/2-mediated TNF-α secretion (Pam3CSK4), ELISA; assay type: cell-based, murine; conditions: RAW 264.7, 10 or 20 μM
T1 construct: endogenous in cells; host or cells: RAW 264.7
T1 sequence (Q9EPQ1 26-795): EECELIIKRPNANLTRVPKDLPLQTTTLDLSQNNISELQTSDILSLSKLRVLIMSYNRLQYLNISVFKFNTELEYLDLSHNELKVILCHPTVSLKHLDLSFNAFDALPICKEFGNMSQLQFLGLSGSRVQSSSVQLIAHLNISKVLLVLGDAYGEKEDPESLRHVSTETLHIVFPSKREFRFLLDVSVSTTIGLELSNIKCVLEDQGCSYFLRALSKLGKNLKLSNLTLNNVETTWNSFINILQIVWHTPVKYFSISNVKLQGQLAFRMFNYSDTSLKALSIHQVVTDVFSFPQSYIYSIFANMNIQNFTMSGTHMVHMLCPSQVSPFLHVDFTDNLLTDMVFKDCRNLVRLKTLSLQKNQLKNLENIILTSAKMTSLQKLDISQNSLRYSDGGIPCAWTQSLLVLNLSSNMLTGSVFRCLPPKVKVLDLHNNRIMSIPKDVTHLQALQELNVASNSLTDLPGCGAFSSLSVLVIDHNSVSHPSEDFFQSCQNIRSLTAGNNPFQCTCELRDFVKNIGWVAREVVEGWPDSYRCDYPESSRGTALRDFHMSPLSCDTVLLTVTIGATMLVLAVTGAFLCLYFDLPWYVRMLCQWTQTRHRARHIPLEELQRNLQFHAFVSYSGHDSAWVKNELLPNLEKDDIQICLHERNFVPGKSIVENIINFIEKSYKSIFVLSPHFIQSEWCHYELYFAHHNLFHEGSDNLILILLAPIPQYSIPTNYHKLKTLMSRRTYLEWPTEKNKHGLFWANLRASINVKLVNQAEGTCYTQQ
T1 sequence (Q9QUN7 25-784): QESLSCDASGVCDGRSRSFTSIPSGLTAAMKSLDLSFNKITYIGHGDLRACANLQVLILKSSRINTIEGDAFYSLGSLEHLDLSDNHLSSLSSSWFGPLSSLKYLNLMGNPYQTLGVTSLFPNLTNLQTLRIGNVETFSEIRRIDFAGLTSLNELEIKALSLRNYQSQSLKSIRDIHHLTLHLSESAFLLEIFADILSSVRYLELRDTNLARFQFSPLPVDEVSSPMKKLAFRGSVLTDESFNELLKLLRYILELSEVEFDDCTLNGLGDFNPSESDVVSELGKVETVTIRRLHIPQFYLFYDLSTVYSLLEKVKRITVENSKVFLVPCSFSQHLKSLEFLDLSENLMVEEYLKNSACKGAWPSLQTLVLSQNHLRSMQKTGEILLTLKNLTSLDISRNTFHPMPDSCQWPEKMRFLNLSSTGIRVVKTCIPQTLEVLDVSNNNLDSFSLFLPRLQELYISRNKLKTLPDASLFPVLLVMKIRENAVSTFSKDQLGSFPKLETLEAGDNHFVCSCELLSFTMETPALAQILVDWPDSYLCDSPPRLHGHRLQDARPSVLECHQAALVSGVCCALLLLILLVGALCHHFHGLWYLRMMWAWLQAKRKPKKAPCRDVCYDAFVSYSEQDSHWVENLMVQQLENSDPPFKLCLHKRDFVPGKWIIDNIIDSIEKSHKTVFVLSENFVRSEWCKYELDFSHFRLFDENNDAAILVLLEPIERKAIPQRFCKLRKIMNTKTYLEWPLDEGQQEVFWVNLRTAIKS
Experimental: Agonists specific to TLR1/TLR2 (Pam3CSK4), TLR2/TLR6 (FSL-1), TLR3 (Poly I:C), TLR7 (imiquimod), and TLR8 (TL8-506) were purchased from InvivoGen Ltd. (Hong-Kong, China), and a TLR4-specific agonist (LPS from E. coli O111:B4) was purchased from Sigma-Aldrich, Inc. For TLR9-specific stimulation, class C CpG-ODN (ODN2395, 5′-TCGTCGTTTTCGGCGCGCGCCG-3′) having full phosphorothioate backbone modification was synthesized (Bioneer, Inc., Daejeon, Korea). All TLR agonists were dissolved in deionized water and applied to a culture media for TLR activation. The cells were treated with test compounds or a control medium for 1 hour, and then stimulated with a TLR agonist for 4 hours, or 24 hours in the case of poly(I:C), and the cytokine secretion was monitored.
RAW 264.7 or differentiated THP-1 cell lines were seeded onto a 96-well culture plate at a density of 2×10^4 cells/well. The cells were treated with test compounds for 1 hour followed by the stimulation with TLR agonists for 4 hours. The supernatant was transferred to pre-coated assay plates, and the secretion levels of mouse and human TNF-α were measured by respective ELISA kits (Invitrogen, Carlsbad, CA, USA). […] Absorbance was measured by a microplate reader spectrophotometer (Molecular Devices, Inc., San Jose, CA, USA), and data was interpolated from a standard curve using SoftMax Pro 5.3 software (Molecular Devices, Inc.). […]

COc1ccc(CNc2ncc(-c3ccc4c(c3)OCO4)n2C)c(OC)c1 [TIC10-7, 5-(2H-1,3-benzodioxol-5-yl)-N-[(2,4-dimethoxyphenyl)methyl]-1-methyl-1H-imidazol-2-amine]
phosphorylation of MAPK (JNK, p38-MAPK, and ERK) and the p65 subunit of NF-κB [1]: blocked the robust phosphorylation
effect on TLR1/2-mediated cytokine (TNF-α) production (TLR1/2): no effect
